Consider two molecules from patent publication US20240276986A1, “Compositions With Ethofumesate And A Safener” (BAYER AKTIENGESELLSCHAFT, priority 2021, published 2024).

For data set [1], the system named is soft winter wheat (TRZAW). Kind of data set: Field trial, crop injury in soft winter wheat after early post-emergence spray. Type of data set: in vivo, Triticum aestivum. Particulars: post-emergence BBCH 11, 140 L/ha, ethofumesate 250 g/ha, combination 250 + 100 g/ha, visual rating vs untreated control. On the procedure: (§1) In field trials the interaction of (i) ethofumesate and (ii) the safener mefenpyr-diethyl concerning cereal crop injury was investigated.
(§2) Plots of different verities of wheat and barley crops in the field were sprayed with an application volume of 140 L/ha with a handheld spray boom.
(§3) Application of the application spray compostions was carried out early in each case post-emergence at BBCH growth stage 11 (first leaf unfolded) of the respective wheat or barley crops.
The four different soft winter wheat (TRZAW) varieties tested were ARTHUR NICK, ELIXER, PISTOLO and RUBISKO.
(§4) The maximum crop damage and the final crop damage were in each case visually rated on a percentage scale in relation to the untreated control (100%=all plants dead, complete crop kill; 50%=green plant biomass reduced by 50%, and 0%=like control plot, no crop injury).
(§5) The main symptoms of crop damage observed were thinning and stunting.

Data set [2] deals with winter barley (HORVW). As to the kind of experiment: Field trial, crop injury in winter barley after early post-emergence spray. Type of data set: in vivo, Hordeum vulgare. Conditions: post-emergence BBCH 11, 140 L/ha, ethofumesate 250 g/ha, combination 250 + 100 g/ha, visual rating vs untreated control. On the procedure:
as §1, §2, §3
The three different winter barley (HORVW) varieties tested were CALIFORNIA, CIERZO and KWS ORBIT.
as §4, §5

The test system of data set [3] is barley and wheat. Particulars: greenhouse studies; cited from earlier work.
For data set [4], the system named is annual bluegrass (Poa annua L.). Conditions: pre-emergence or early post-emergence at 0.8 to 4.5 kg/ha; Italian ryegrass seed fields; cited from earlier work.
Data set [5] relates to volunteer wheat (Triticum aestivum L.). Conditions: cited from earlier work.
The subject of data set [6] is cereral crops such as wheat or barley. Kind of data set: Own experiments, safening effect of mefenpyr-diethyl used with flufenacet. Type of data set: in vivo. Conditions: used with flufenacet (WSSA group 15); cereal crops such as wheat or barley.

Each structure is given as a SMILES string. Like-named read-outs stand apart in the source and are kept apart here.

In the case of `CCOC1Oc2ccc(OS(C)(=O)=O)cc2C1(C)C` (stereo not shown) [Ethofumesate, 2-ethoxy-2,3-dihydro-3,3-dimethylbenzofuran-5-yl methanesulfonate], the “Final crop damage in %” value in data set [1] (Variety ARTUR NICK) is 11.6%; in data set [1] (Variety ELIXER) it was 28.3%; in data set [1] (Variety PISTOLO), 14.0%; in data set [1] (Variety RUBISKO), 13.7%; in data set [2] (Variety CALIFORNIA) it was 12.5%; in data set [2] (Variety CIERZO) it was 19.7%. Further, the “Final crop damage in %” value in data set [2] (Variety KWS ORBIT) was determined as 25.0%. Besides, the “Maximum crop damage in %” value in data set [1] (Variety ARTUR NICK) stood at 16%; in data set [1] (Variety ELIXER), 63%; in data set [1] (Variety PISTOLO), 24%; in data set [1] (Variety RUBISKO), 30%; in data set [2] (Variety CALIFORNIA), 25%; in data set [2] (Variety CIERZO) it was 28%. The “Maximum crop damage in %” value in data set [2] (Variety KWS ORBIT) is listed as 45%. Besides, the “susceptibility of barley and wheat to soil residues of ethofumesate relative to corn” value in data set [3] is recorded as “about 10 times”. In addition, in data set [4], the “control of annual bluegrass” value is reported as “eliminated annual bluegrass”. Also, the “control of volunteer wheat” value in data set [5] (1.7 kg/ha or more, wheat in the one- to three-leaf stage) is given as “eliminated the wheat”; in data set [5] (applied pre-emergence soon after planting or at the end of November to wheat in the four-leaf to four-tiller stage), “not eliminated”.

On to `CCOC(=O)C1=NN(c2ccc(Cl)cc2Cl)C(C)(C(=O)OCC)C1` (stereo not shown) [mefenpyr-diethyl, ethyl 1-(2,4-dichlorophenyl)-5-(ethoxycarbonyl)-5-methyl-2-pyrazoline-3-carboxylate], for which, in data set [6], the safening effect result is “does not have a safening effect”.
